Experimental data taken from patent publication US20100000032A1, “PHENOXAZINE DYES” (Wetlands Incubator sprl, priority 2008, published 2010).

Tests used:
[1] = Light fastness of dyeing, ISO 105 B02; format: physicochemical; conditions: polyamide 6 knitted fabric, rating 5 = no colour change, 1 = high colour change
Method: (§1) The fastness properties of the dyeings (textile and leather) were measured in accordance with ISO standards mentioned in Table 3. The results shown in Table 3 are the visual assessment described in ISO105-A02: 1993 textiles—test for colour fastness—part A02. On this scale, a rating of 5 means no colour change and a rating of 1 means a high colour change.

[2] = Washing fastness of dyeing, ISO 105 C06: A2S; format: physicochemical; conditions: for Washing fastness, staining, acrylic / Washing fastness, staining, cellulose acetate / Washing fastness, staining, cotton / Washing fastness, staining, nylon / Washing fastness, staining, polyester / Washing fastness, staining, wool: rating 1-5; for Washing fastness, colour change: polyamide 6 knitted fabric, rating 5 = no colour change, 1 = high colour change
Method: as §1

[3] = Water fastness of dyeing, ISO 105 E01; format: physicochemical; conditions: for Water fastness, staining, acrylic / Water fastness, staining, cellulose acetate / Water fastness, staining, cotton / Water fastness, staining, nylon / Water fastness, staining, polyester / Water fastness, staining, wool: rating 1-5; for Water fastness, colour change: polyamide 6 knitted fabric, rating 5 = no colour change, 1 = high colour change
Method: as §1

[4] = Chlorinated water fastness of dyeing, ISO 105 E03; format: physicochemical; conditions: polyamide 6 knitted fabric, rating 5 = no colour change, 1 = high colour change
Method: as §1

[5] = tested on: Caco-2 human intestinal cell line; test: In vitro toxicity, neutral red uptake; format: cell-based; conditions: concentration at which 50% of the cells die, exposure at least 48 hr, highest concentration tested 0.5 g/L
Method: (§2) The toxicity of compounds 17 and 18 were assessed with an in vitro method using the Caco-2 human intestinal cell line and the rainbow trout gonad (RTG-2) fish cell line. […] Subsequently, the cells were exposed to a series of concentrations of the test compounds, and two blanks, for at least 48 hr until 90% confluence was attained in the blanks. The highest concentration tested being 0.5 g/L. Thereafter, the exposure medium containing the test compounds was decanted and the cells in the microplate wells were gently washed with phosphate buffered saline solution. In order to measure the number of viable cells remaining after the exposure to the test compounds, the cells were exposed to a solution of neutral red in cell culture medium for 3 hr. […] Finally, the neutral red solution was decanted, the wells were again gently washed and then a solution of 1% acetic acid in 50% ethanol was added to the wells to dissolve the neutral red taken up by the viable cells. The absorbance of each well at 540 nm was measure with an appropriate microplate reader. The amount of neutral red present in each well is an indication of the number of viable cells and when compared to the values for the blanks can be used to calculate a percentage of cell death. An IC50 value, the concentration of the test compounds at which 50% of the cells die, can be determined if at least one of the tested compounds produces more than 50% cell death and at least one produces less; the results concerning compounds 17 and 18 are given in Table 4. If none of the tested concentrations produces more than 50% cell death, than an estimating can be made if at least some effect is noticeable. Comparing IC50 values among test compounds and with known toxicants allows for an assessment of their relative toxicities.

[6] = tested on: rainbow trout gonad (RTG-2) fish cell line; test: In vitro toxicity, neutral red uptake; format: cell-based; conditions: Oncorhynchus mykiss, concentration at which 50% of the cells die, exposure at least 48 hr, highest concentration tested 0.5 g/L, read-out: NRTG-2 cells IC50
Method: as §2

For `Nc1cc2nc3cc(S(=O)(=O)O)ccc3oc-2cc1=O` [Compound 18, 2-Amino-3oxo-3H-phenoxazine-8-sulfonic acid], the Light fastness ([1]; 1% omf) was 3, the “Washing fastness, staining, acrylic” value ([2]; 1% omf) was 4/5 and the “Washing fastness, staining, cellulose acetate” value ([2]; 1% omf) was 4/5. For the same compound, the “Washing fastness, staining, cotton” value ([2]; 1% omf) was 4/5, the “Washing fastness, staining, nylon” value ([2]; 1% omf) was 4/5 and the “Washing fastness, staining, polyester” value ([2]; 1% omf) was 4/5. The “Washing fastness, staining, wool” value ([2]; 1% omf) was 4/5, the “Washing fastness, colour change” value ([2]; 1% omf) was 4 and the “Water fastness, staining, acrylic” value ([3]; 1% omf) was 4/5. For the same compound, the “Water fastness, staining, cellulose acetate” value ([3]; 1% omf) was 4, the “Water fastness, staining, cotton” value ([3]; 1% omf) was 4 and the “Water fastness, staining, nylon” value ([3]; 1% omf) was 3. For the same compound, the “Water fastness, staining, polyester” value ([3]; 1% omf) was 4/5, the “Water fastness, staining, wool” value ([3]; 1% omf) was 2/3 and the “Water fastness, colour change” value ([3]; 1% omf) was 4. The “Chlorinated water fastness, colour change” value ([4]; 1% omf) was 3/4 and the IC50 [5] was over 686 µg/mL.

In the case of `Nc1c(S(=O)(=O)O)c2nc3c(S(=O)(=O)O)cccc3oc-2cc1=O` [Compound 17, 2-Amino-3oxo-3H-phenoxazine-1,9-disulfonic acid], the Light fastness ([1]; 2% omf) is reported as over 3, the “Washing fastness, staining, acrylic” value ([2]; 2% omf) is reported as 4/5 and the “Washing fastness, staining, cellulose acetate” value ([2]; 2% omf) is reported as 4/5. The “Washing fastness, staining, cotton” value ([2]; 2% omf) was 4/5, the “Washing fastness, staining, nylon” value ([2]; 2% omf) was 3/4 and the “Washing fastness, staining, polyester” value ([2]; 2% omf) was 4/5. The “Washing fastness, staining, wool” value ([2]; 2% omf) was 4, the “Washing fastness, colour change” value ([2]; 2% omf) was 3 and the “Water fastness, staining, acrylic” value ([3]; 2% omf) was 4/5. The “Water fastness, staining, cellulose acetate” value ([3]; 2% omf) was 4/5, the “Water fastness, staining, cotton” value ([3]; 2% omf) was 4/5 and the “Water fastness, staining, nylon” value ([3]; 2% omf) was 3/4. The “Water fastness, staining, polyester” value ([3]; 2% omf) was 4/5, the “Water fastness, staining, wool” value ([3]; 2% omf) was 4 and the “Water fastness, colour change” value ([3]; 2% omf) was 3. For the same compound, the “Chlorinated water fastness, colour change” value ([4]; 2% omf) was 3, the IC50 [5] was over 550 µg/mL and the IC50 [6] was over 780 µg/mL.
